According to US20220073554A1, “LINCOSAMIDE ANTIBIOTICS AND USES THEREOF” (President and Fellows of Harvard College, priority 2017, published 2022):
Converted amounts (≈) assume the structure as drawn. Where two headings read alike, the source gives them in different places.

What was measured:
Format in all cases: cell-based
E. coli ATCC 15922 = assay: MIC against E. coli ATCC 15922; settings: Escherichia coli, ATCC15922; E. coli ATCC 15922; read-out: MIC
E. faecalis ATCC 29212 = assay: MIC against E. faecalis ATCC 29212; settings: Enterococcus faecalis
S. pyogenes ATCC 19615 = assay: MIC against S. pyogenes ATCC 19615; settings: Streptococcus pyogenes, ATCC19615; S. pyogenes ATCC 19615; read-out: MIC
S. pneumoniae ATCC 49619 = assay: MIC against S. pneumoniae ATCC 49619; settings: Streptococcus pneumoniae, ATCC49619; S. pneumoniae ATCC 49619; read-out: MIC
[1] = test system: E. coli MP-74 LptD mutant; assay: MIC against E. coli MP-74 LptD mutant; settings: Escherichia coli
E. coli ATCC 25922 = assay: MIC against E. coli ATCC 25922; settings: Escherichia coli, ATCC25922
[2] = test system: S. aureus MP-549 msr(a) USA 300; assay: MIC against S. aureus MP-549 msr(a) USA 300; settings: Staphylococcus aureus, USA300, S. aureus MP-549 msr(a) USA 300
E. coli MP-9 ΔTolC = assay: MIC against E. coli MP-9 ΔTolC; settings: Escherichia coli
K. pneumoniae ATCC 10031 = assay: MIC against K. pneumoniae ATCC 10031; settings: Klebsiella pneumoniae, ATCC10031
S. aureus ATCC 29213 = assay: MIC against S. aureus ATCC 29213
H. influenzae ATCC 49247 = assay: MIC against H. influenzae ATCC 49247; settings: Haemophilus influenzae, ATCC49247
S. aureus BAA 977 iErmA = assay: MIC against S. aureus BAA 977 iErmA; settings: Staphylococcus aureus, BAA977
[3] = test system: S. pneumoniae MMX 3031 cMefA; assay: MIC against S. pneumoniae MMX 3031 cMefA; settings: Streptococcus pneumoniae, MMX3031CMEFA
[4] = Staphylococcus aureus, ATCC29213, S. aureus ATCC 29213, read-out: MIC

SMILES | MIC (E. coli ATCC 15922) | MIC (E. faecalis ATCC 29212; ATCC29212, read-out: MIC) | MIC (S. pyogenes ATCC 19615) | MIC (S. pneumoniae ATCC 49619) | MIC [1] | MIC (E. coli ATCC 25922) | MIC [2] | MIC (E. coli MP-9 ΔTolC) | MIC (K. pneumoniae ATCC 10031) | MIC (S. aureus ATCC 29213; [4]) | MIC (H. influenzae ATCC 49247) | MIC (E. faecalis ATCC 29212; ATCC29212) | MIC (S. aureus BAA 977 iErmA) | MIC (S. aureus ATCC 29213; S. aureus ATCC 29213) | MIC [3]
CSC1O[C@H]([C@H](NC(=O)[C@@H]2[C@@H]3OCC=CC[C@H]3CN2C2CC2)[C@H](C)Sc2ccc(-c3cccnc3)cc2)C(O)[C@@H](O)[C@H]1O (some centres unmarked) [FSA-214009a] | > 64 µg/mL | > 64 µg/mL | 4 µg/mL (≈ 6.37 µM) | 4 µg/mL (≈ 6.37 µM) | – | – | – | – | – | – | – | – | – | – | –
CSC1O[C@H]([C@H](NC(=O)[C@H]2NC[C@@H]3CCCCO[C@@H]32)[C@H](C)Cl)C(O)[C@@H](O)[C@H]1O (some centres unmarked) [FSA-504062] | – | – | – | – | > 64 µg/mL | > 64 µg/mL | 1 µg/mL (≈ 2.28 µM) | > 64 µg/mL | > 64 µg/mL | 2 µg/mL (≈ 4.56 µM) | > 64 µg/mL | – | – | – | –
CSC1O[C@H]([C@H](NC(=O)[C@H]2NC[C@@H]3C[C@@H](C4CCN(C)CC4)CCO[C@H]32)[C@H](C)Cl)C(O)[C@@H](O)[C@H]1O (some centres unmarked) [FSA-512012] | – | – | 4 µg/mL (≈ 7.46 µM) | 1 µg/mL (≈ 1.87 µM) | > 256 µg/mL | > 256 µg/mL | 8 µg/mL (≈ 14.9 µM) | > 256 µg/mL | – | 8 µg/mL (≈ 14.9 µM) | > 256 µg/mL | – | – | – | –
CSC1O[C@H]([C@H](NC(=O)[C@H]2NC[C@@H]3CC(NCc4ccccc4F)CCO[C@H]32)[C@H](C)Cl)C(O)[C@@H](O)[C@H]1O (some centres unmarked) [FSA-510072] | – | – | 8 µg/mL (≈ 14.2 µM) | 32 µg/mL (≈ 56.9 µM) | > 64 µg/mL | > 64 µg/mL | – | > 64 µg/mL | > 64 µg/mL | – | > 64 µg/mL | > 64 µg/mL | – | – | –
CSC1O[C@H]([C@H](NC(=O)[C@H]2NC[C@@H]3CC=CCO[C@@H]32)[C@H](C)Cl)C(O)[C@@H](O)[C@H]1O (some centres unmarked) [FSA-504059] | – | – | – | – | > 64 µg/mL | > 64 µg/mL | 2 µg/mL (≈ 4.58 µM) | > 64 µg/mL | > 64 µg/mL | 2 µg/mL (≈ 4.58 µM) | > 64 µg/mL | – | – | – | –
COc1ccc(C2CCO[C@@H]3[C@H](CN[C@@H]3C(=O)N[C@H]([C@H](C)Cl)[C@H]3OC(SC)[C@H](O)[C@H](O)C3O)C2)cc1 (some centres unmarked) [FSA-511045] | > 64 µg/mL | 1 µg/mL (≈ 1.83 µM) | ≤ 0.06 µg/mL | ≤ 0.06 µg/mL | 37 µg/mL (≈ 67.9 µM) | – | – | 8 µg/mL (≈ 14.7 µM) | – | 0.3 µg/mL (≈ 0.55 µM) | – | – | – | – | –
CSC1O[C@H]([C@H](NC(=O)[C@H]2NC[C@@H]3CC(NCc4ccc(F)cc4)CCO[C@H]32)[C@H](C)Cl)C(O)[C@@H](O)[C@H]1O (some centres unmarked) [FSA-510074] | – | – | 8 µg/mL (≈ 14.2 µM) | – | > 64 µg/mL | > 64 µg/mL | – | – | > 64 µg/mL | – | > 64 µg/mL | > 64 µg/mL | – | – | –
CSC1O[C@H]([C@H](NC(=O)[C@H]2NC[C@@H]3C[C@H](c4ccc(C#N)cc4)CCO[C@H]32)[C@H](C)Cl)C(O)[C@@H](O)[C@H]1O (some centres unmarked) [FSA-512081b] | – | 1 µg/mL (≈ 1.85 µM) | ≤ 0.06 µg/mL | ≤ 0.06 µg/mL | 37 µg/mL (≈ 68.5 µM) | – | 1 µg/mL (≈ 1.85 µM) | 8 µg/mL (≈ 14.8 µM) | – | – | – | – | 1 µg/mL (≈ 1.85 µM) | – | –
CSC1O[C@H]([C@H](NC(=O)[C@H]2NC[C@@H]3CC(NC4CC4)CCO[C@H]32)[C@H](C)Cl)C(O)[C@@H](O)[C@H]1O (some centres unmarked) [FSA-510011] | – | – | 2 µg/mL (≈ 4.05 µM) | 8 µg/mL (≈ 16.2 µM) | > 64 µg/mL | > 64 µg/mL | – | > 64 µg/mL | > 64 µg/mL | – | > 64 µg/mL | > 64 µg/mL | – | – | –
CSC1O[C@H]([C@H](NC(=O)[C@H]2NC[C@@H]3C[C@@H](c4ccc(C#N)cc4)CCO[C@H]32)[C@H](C)Cl)C(O)[C@@H](O)[C@H]1O (some centres unmarked) [FSA-511046] | > 64 µg/mL | 1 µg/mL (≈ 1.85 µM) | ≤ 0.06 µg/mL | ≤ 0.06 µg/mL | – | – | 0.5 µg/mL (≈ 0.926 µM) | 8 µg/mL (≈ 14.8 µM) | – | – | – | – | – | 1 µg/mL (≈ 1.85 µM) | –
CSC1O[C@H]([C@H](NC(=O)[C@H]2NC[C@@H]3C[C@@H](c4ccc(C#N)cc4)CCO[C@H]32)[C@H](C)Cl)C(O)[C@@H](O)[C@H]1O (some centres unmarked) [FSA-512081a] | – | – | – | – | – | – | – | – | – | – | – | – | 1 µg/mL (≈ 1.85 µM) | – | ≤ 0.06 µg/mL
